Measured values published in ChEMBL document CHEMBL1201862, “PubChem BioAssay data set” (2004).
Calls of active or inactive are those of the source.

Columns and labels:
Aurora kinase B = Aurora kinase B (Homo sapiens, UniProt Q96GD4); format: functional
SRSF protein kinase 1 = SRSF protein kinase 1 (Homo sapiens, UniProt Q96SB4); format: functional;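 also: measured as one member of a kinome-wide kinase profiling panel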
[1] = biological target: Mitogen-activated protein kinase kinase kinase kinase 4 (Homo sapiens, UniProt O95819); format: functional
[2] = biological target: Protein disulfide-isomerase (Homo sapiens, UniProt P07237); experiment: inhibition of PDI-driven insulin aggregation – biochemical, turbidity, absorbance, cherry-picked samples, dose response (AID 602350); format: functional
[3] = biological target: Mitogen-activated protein kinase 1 (Homo sapiens, UniProt P28482); format: functional
Mitogen-activated protein kinase 1, sequence (P28482 whole entry): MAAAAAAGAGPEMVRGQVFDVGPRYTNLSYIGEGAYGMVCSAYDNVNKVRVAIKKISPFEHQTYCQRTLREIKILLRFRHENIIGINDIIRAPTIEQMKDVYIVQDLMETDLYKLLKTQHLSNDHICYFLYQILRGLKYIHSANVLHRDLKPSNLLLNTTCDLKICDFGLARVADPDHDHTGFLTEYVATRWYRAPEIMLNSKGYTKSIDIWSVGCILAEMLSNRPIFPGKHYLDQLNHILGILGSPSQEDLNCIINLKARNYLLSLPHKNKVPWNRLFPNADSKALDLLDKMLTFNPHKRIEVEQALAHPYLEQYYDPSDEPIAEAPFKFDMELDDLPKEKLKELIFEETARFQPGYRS

[4] = biological target: Proto-oncogene tyrosine-protein kinase ROS (Homo sapiens, UniProt P08922); format: functional;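 also: ROS1 tested as one member of a kinome-wide kinase panel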
[5] = biological target: cAMP-dependent protein kinase catalytic subunit alpha (Homo sapiens, UniProt P17612); format: functional
[6] = biological target: Leucine-rich repeat serine/threonine-protein kinase 2 (Homo sapiens, UniProt Q5S007); format: functional;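 also: value from a broad kinome-wide panel profiling study in which LRRK2 was one of the kinases tested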
[7] = biological target: Mitogen-activated protein kinase 13 (Homo sapiens, UniProt O15264); format: functional
Mitogen-activated protein kinase 13, sequence (O15264 whole entry): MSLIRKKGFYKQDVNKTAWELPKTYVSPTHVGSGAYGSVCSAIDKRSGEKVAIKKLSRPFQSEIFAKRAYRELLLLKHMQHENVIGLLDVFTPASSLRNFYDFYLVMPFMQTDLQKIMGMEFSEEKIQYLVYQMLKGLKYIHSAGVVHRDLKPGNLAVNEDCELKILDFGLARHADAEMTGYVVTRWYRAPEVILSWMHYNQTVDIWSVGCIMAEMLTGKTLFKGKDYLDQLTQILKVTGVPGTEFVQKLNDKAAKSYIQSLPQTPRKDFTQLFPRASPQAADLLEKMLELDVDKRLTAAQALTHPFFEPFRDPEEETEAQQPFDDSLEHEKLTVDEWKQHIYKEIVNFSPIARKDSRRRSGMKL

[8] = biological target: Dual specificity protein kinase CLK4 (Homo sapiens, UniProt Q9HAZ1); format: functional
Dual specificity protein kinase CLK4, sequence (Q9HAZ1 whole entry): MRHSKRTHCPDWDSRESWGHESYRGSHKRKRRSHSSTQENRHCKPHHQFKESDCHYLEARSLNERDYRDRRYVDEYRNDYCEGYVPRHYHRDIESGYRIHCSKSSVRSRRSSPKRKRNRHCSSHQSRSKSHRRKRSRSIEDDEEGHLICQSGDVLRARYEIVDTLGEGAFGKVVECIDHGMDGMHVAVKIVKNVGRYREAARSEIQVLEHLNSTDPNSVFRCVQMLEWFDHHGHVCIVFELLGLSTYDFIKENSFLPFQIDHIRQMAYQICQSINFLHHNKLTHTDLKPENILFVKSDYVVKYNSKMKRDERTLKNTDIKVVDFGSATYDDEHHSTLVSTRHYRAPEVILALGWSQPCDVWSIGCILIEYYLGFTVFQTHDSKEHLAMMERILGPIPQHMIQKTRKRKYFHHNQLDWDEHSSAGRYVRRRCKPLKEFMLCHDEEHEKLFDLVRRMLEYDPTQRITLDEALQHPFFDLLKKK

[9] = biological target: Cyclin-dependent kinase 1 (Homo sapiens, UniProt P06493); format: functional;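 also: Kinome-wide panel profiling, with the target listed as panel member CDC2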
[10] = biological target: 72 kDa type IV collagenase (Homo sapiens, UniProt P08253); experiment: Dose Response validation of uHTS RPN11 inhibitor hits using a MMP-2 Fluorescence assay.; format: functional
72 kDa type IV collagenase, sequence (P08253 whole entry): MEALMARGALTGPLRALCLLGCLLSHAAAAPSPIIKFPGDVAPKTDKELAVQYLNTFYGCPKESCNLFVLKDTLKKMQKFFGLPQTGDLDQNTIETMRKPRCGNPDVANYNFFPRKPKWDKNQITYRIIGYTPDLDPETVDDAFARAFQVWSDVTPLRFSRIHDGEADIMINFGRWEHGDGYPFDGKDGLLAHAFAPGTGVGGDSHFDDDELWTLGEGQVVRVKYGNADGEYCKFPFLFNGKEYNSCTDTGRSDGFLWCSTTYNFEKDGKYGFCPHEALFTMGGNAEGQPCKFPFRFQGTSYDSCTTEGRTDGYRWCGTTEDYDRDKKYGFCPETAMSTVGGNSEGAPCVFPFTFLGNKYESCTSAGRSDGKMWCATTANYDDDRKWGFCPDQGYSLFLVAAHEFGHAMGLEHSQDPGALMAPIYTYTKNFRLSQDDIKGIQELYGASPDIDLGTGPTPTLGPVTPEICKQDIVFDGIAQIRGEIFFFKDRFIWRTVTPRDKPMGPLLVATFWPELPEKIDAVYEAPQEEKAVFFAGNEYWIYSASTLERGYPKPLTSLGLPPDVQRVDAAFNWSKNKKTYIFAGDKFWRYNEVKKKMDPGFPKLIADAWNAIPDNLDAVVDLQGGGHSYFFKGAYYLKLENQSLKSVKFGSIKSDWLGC

Paired box protein Pax-8 = Paired box protein Pax-8 (Homo sapiens, UniProt Q06710); experiment: PAX8 transcriptional activity inhibition in RMG-I – RMG-I cells, luciferase, cherry-pick, dose response (AID 687027); format: functional, cell-based;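 also: luciferase reporter driven by Pax8 target thyroperoxidase promoter measured by SteadyGlo luminescence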
Paired box protein Pax-8, sequence (Q06710 whole entry): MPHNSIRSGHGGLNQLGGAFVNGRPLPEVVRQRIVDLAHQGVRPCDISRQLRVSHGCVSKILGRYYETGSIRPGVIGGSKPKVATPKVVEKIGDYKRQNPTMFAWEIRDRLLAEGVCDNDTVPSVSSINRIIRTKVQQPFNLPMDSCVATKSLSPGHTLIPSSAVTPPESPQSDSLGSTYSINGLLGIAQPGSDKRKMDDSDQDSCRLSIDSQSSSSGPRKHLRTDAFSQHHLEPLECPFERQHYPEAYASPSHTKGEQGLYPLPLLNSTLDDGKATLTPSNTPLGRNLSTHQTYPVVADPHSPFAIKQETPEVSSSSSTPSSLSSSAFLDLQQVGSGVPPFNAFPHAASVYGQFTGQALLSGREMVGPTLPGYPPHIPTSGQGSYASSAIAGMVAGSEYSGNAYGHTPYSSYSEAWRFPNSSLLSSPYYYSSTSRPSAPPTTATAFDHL

[11] = general cell-killing toxicity readout – plate reader, dry powder samples, cytotoxicity control for PAX8 inhibitor project, dose response (AID 743021); format: functional, cell-based
[12] = Luminescence Cell-Based Dose Response HTS to Identify Inhibitors of 5'UTR Stem-Loop Driven Prion Protein mRNA Translation in H4 Neuroglioblastoma Cells. [Related pubchem assays: 1827 (Project Summary), 1813 (Primary HTS)]; format: functional
[13] = luciferase reporter signal suppression in cells – H4 neuroglioma cells, luminescence, dose response (AID 1990); format: functional, cell-based
[14] = biological target: SWI/SNF-related matrix-associated actin-dependent regulator of chromatin subfamily A member 2 (Homo sapiens, UniProt P51531); experiment: Luminescence-based cell-based high throughput dose response assay to identify activators of the function of SWI/SNF related, matrix associated, actin dependent regulator of chromatin, subfamily a, member 2 (SMARCA2, BRM).; format: functional
SWI/SNF-related matrix-associated actin-dependent regulator of chromatin subfamily A member 2, sequence (P51531 whole entry): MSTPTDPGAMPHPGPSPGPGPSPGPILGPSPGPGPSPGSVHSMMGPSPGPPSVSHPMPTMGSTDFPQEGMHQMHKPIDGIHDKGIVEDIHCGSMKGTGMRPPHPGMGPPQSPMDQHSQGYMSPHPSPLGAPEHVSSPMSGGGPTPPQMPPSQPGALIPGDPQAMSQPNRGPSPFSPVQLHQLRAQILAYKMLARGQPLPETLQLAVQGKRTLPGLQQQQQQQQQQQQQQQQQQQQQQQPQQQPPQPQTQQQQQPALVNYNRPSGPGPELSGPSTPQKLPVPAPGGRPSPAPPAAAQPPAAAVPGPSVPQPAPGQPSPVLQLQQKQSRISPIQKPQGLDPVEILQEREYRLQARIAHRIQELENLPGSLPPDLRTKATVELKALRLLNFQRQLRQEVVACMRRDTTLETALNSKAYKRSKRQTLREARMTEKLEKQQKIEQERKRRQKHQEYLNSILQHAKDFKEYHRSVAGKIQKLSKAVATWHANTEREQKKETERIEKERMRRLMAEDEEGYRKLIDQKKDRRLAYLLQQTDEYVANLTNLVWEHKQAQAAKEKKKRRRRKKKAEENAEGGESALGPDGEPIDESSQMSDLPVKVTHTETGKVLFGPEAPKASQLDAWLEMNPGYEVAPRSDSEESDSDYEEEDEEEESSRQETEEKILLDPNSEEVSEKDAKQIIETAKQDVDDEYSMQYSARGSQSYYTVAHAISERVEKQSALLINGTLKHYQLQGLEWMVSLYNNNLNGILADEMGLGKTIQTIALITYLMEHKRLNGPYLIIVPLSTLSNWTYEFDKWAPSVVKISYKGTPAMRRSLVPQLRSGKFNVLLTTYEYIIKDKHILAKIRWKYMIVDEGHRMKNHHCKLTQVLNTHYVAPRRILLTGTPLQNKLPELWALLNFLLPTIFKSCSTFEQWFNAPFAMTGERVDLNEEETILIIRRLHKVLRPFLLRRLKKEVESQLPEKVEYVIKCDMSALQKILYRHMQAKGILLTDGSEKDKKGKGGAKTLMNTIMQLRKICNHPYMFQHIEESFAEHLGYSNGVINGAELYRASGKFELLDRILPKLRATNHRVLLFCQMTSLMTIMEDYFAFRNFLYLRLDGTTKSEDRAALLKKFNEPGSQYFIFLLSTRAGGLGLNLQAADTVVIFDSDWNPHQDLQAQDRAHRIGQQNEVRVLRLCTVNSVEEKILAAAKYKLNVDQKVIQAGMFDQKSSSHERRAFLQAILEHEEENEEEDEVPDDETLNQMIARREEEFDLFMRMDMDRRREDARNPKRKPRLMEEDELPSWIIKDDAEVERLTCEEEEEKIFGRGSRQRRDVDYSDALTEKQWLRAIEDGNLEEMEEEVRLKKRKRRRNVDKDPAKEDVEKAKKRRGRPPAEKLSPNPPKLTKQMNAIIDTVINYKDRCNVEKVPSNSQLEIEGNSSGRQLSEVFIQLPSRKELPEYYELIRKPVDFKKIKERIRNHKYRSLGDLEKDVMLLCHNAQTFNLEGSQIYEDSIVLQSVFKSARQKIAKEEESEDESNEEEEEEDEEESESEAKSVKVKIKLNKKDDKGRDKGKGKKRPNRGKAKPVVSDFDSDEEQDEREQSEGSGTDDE

Prothrombin = Prothrombin (Bos taurus, UniProt P00735); experiment: thrombin protease inhibitors – biochemical, fluorescence polarization, uHTS hits, dose response (AID 602369); format: functional
[15] = biological target: 26S proteasome non-ATPase regulatory subunit 14 (Homo sapiens, UniProt O00487); experiment: inhibition of proteasome subunit RPN11 – biochemical, fluorescence polarization, uHTS hits, confirmation (AID 602368); format: functional
26S proteasome non-ATPase regulatory subunit 14, sequence (O00487 whole entry): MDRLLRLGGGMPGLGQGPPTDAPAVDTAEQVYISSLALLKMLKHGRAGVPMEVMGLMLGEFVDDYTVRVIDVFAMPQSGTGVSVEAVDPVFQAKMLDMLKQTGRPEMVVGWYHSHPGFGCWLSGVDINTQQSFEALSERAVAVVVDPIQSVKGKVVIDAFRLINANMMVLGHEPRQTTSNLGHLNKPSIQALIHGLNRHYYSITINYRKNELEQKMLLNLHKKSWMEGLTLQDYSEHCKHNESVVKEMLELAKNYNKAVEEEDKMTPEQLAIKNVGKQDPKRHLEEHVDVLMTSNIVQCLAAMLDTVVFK

[16] = alpha-synuclein stem-loop luciferase translation blockers – H4 neuroglioma cells, luminescence, confirmation (AID 1988); format: functional, cell-based
[17] = Counterscreen for activators of the function of SWI/SNF related, matrix associated, actin dependent regulator of chromatin, subfamily a, member 2 (SMARCA2, BRM): Luminescence-based cell-based high throughput dose response assay to identify non-selective compounds using the VP16 reporter assay.; format: functional
Melanocortin receptor 4 = Melanocortin receptor 4 (Homo sapiens, UniProt P32245); experiment: inhibitors of MC4R cAMP signaling – cell-based, TR-FRET, biased antagonists, dose response (AID 602298); format: functional;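 also: antagonist potency against agonist-stimulated cAMP production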
Melanocortin receptor 4, sequence (P32245 whole entry): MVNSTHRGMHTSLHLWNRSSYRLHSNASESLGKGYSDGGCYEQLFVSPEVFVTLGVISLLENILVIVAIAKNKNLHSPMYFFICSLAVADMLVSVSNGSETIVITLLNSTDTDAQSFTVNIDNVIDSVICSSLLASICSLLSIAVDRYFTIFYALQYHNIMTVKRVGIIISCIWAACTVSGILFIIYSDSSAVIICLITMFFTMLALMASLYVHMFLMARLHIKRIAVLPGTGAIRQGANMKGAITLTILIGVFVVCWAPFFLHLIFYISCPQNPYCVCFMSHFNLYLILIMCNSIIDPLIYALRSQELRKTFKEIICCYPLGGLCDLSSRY

[18] = cAMP pathway inhibition in counterscreen cell line – TR-FRET cAMP detection, counter-screen for MC4R biased antagonist project, dose response (AID 602305); format: functional, cell-based;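 also: U2OS cells stimulated with forskolin near its EC80 as the cAMP inducer; potency is for inhibition of forskolin-stimulated cAMP signaling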

Aurora kinase B, sequence (Q96GD4 whole entry): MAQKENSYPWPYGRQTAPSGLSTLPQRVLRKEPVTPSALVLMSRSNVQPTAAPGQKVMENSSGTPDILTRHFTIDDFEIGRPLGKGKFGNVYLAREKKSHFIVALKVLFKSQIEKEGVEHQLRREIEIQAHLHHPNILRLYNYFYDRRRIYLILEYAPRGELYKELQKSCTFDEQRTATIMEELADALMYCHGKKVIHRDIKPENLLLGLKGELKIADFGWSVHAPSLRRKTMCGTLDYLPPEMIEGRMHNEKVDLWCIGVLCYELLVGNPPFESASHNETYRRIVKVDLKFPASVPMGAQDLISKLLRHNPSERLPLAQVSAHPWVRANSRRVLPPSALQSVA

COc1cccc(-n2nc(C)c3c(=O)c4cc(Cl)ccc4n(O)c32)c1
active: Ki (Aurora kinase B) 1.26 µM | Ki (SRSF protein kinase 1) 7.94 µM | Ki [1] 6.31 µM

COc1ccc(N2CCN(CC(=O)c3ccc(O)c(C)c3O)CC2)cc1
active: AC50 [2] 19.5 µM

CN(c1ncccc1CNc1nc(Nc2ccc3c(c2)CC(=O)N3)ncc1C(F)(F)F)S(C)(=O)=O [PF-00562271]
active: Ki (Aurora kinase B) 0.0631 µM | Ki [3] 0.0631 µM | Ki [4] 0.0126 µM | Ki [5] 0.158 µM | Ki [6] 0.158 µM | Ki [8] 0.0631 µM | Ki [9] 0.0631 µM
inactive: Ki [7] > 7.94 µM

COc1ccc(-n2nc3c(N4CCC(C(=O)NCc5cccc(C)c5)CC4)nnc(C)c3c2C)cc1
active: AC50 (Paired box protein Pax-8) 5.58 µM | AC50 [11] 23.8 µM | EC50 [12] 12 µM | EC50 [13] 9.83 µM | IC50 (Prothrombin) 48.7 µM | IC50 [15] 29.3 µM | EC50 [16] 6.99 µM
inactive: IC50 [10] > 100 µM | EC50 [14] > 91.1 µM | EC50 [17] > 91.1 µM

Cc1ccc(CNC(=O)COC(=O)Cn2nc(C)c([N+](=O)[O-])c2C)cc1
inactive: IC50 (Melanocortin receptor 4) 14.4 µM | IC50 [18] > 64.6 µM
